From article PMC9560598 (PLoS Pathogens, 2022)
Values joined by “and” are separate entries in the source; they are usually repeats but may differ in a detail not shown here. Equal values may be shown once. Read-outs that look alike come from different tables or passages of the source. Bridge positions count the residues as written; N and C are the ends. Ends that are not written are not given here. Peptide text beside a SMILES is read from it.

Experiments:
[1] = test system: encapsulated WT B. anthracis Ames bacilli; conditions: for killing: encapsulated WT Ames bacilli, 2 h
[2] = format: binding, Bacillus anthracis; conditions: n = 3
[3] = test system: non-encapsulated Sterne strain of B. anthracis; conditions: cited from earlier work
[4] = test system: encapsulated WT B. anthracis Ames bacilli; format: cell-based, Bacillus anthracis
[5] = test system: encapsulated killed WT B. anthracis bacilli; format: cell-based, Bacillus anthracis

Compound | Concentrations at which bactericidal activity (significant killing) was observed [1] [µg/mL] | Binding to purified capsule (shift in electrophoretic mobility towards the cathode) [2] | % of 0 μg/ml Control, Mean [1] | killing ([1]; 20 μg/ml) [%] | Killing of the non-encapsulated Sterne strain [3] | also measured
Melittin | 0.1 to 100 |  |  |  |  | 
Polymyxin B | 1 to 100 |  |  |  |  | 
GIGDPVTCLKSGAICHPVFCPRRYKQIGTCGLPGTKCCKKP (disulfide 8-37, 15-30, 20-38 (inferred)) [HBD-2] |  | bound to capsule | 34.5% and 26.0% | 65 | could not | Bactericidal activity against the Sterne strain [3]: modest bactericidal activity
Nisin | 0.1 to 100 |  |  |  |  | 
CC[C@H](C)[C@@H]1NC(=O)[C@H](CCCCN)NC(=O)[C@H]([C@@H](C)O)NC(=O)[C@H](Cc2ccccc2)NC(=O)[C@H]([C@@H](C)CC)NC(=O)[C@@H]2CCCN2C(=O)[C@@H]2CSSC[C@@H](C(=O)N[C@@H](CCCCN)C(=O)O)NC(=O)[C@@H]3CSSC[C@H](NC(=O)[C@H](CC(N)=O)NC(=O)[C@H](Cc4ccc(O)cc4)NC(=O)[C@H](Cc4c[nH]cn4)NC(=O)[C@@H](N)CC(=O)O)C(=O)N[C@@H](C(C)C)C(=O)N[C@@H](CO)C(=O)N[C@@H](CO)C(=O)NCC(=O)NCC(=O)N[C@@H](CCC(N)=O)C(=O)N[C@@H](CSSC[C@H](NC(=O)[C@H]([C@@H](C)O)NC(=O)CNC(=O)[C@H](CCC(N)=O)NC1=O)C(=O)N[C@@H](Cc1ccc(O)cc1)C(=O)N[C@@H](CCCNC(=N)N)C(=O)NCC(=O)N[C@@H](CCCCN)C(=O)N[C@@H](C)C(=O)N[C@@H](CCCCN)C(=O)N3)C(=O)N[C@@H](CC(C)C)C(=O)N[C@@H](Cc1ccc(O)cc1)C(=O)N[C@@H](CO)C(=O)N[C@@H](C)C(=O)N2 [HBD-1] (H-DHYNCVSSGGQCLYSACPIFTKIQGTCYRGKAKCCK-OH; disulfide 5-34, 12-27, 17-35 (inferred); N-terminus and C-terminus assumed) |  |  | 59.1% | 41 | could not | 
GIINTLQKYYCRVRGGRCAVLSCLPKEEQIGKCSTRGRKCCRRKK (disulfide 11-40, 18-33, 23-41 (inferred)) [HBD-3] | 0.2 to 20 | bound to capsule |  | 71 | could kill | Localisation of HBD-3 on bacilli [4]: only on the outer surface of the capsule; % reduction of MFI [5]: 29.6639% and 31.2268% and 35.1463% and 34.7672%; % reduction of MFI, avg [5]: 32.7011%; mean fluorescence intensity (MFI) [5]: 706.28 and 766.2 and 635.97 and 635.34 and 496.77 and 526.94 and 412.45 and 414.45; mean fluorescence intensity (MFI), avg [5]: 685.947 and 462.653; killing ([1]; 0.2 μg/ml): 58%
